# pIC50: −log10 of the molar value. Several values for one entry are separate records, joined by “and”; a condition that tells them apart may be missing. Equal entries are not always repeated.
# Experiments:
# Test in all cases: cells
# [1] = test system: MHH-PREB-1; assay type: functional, cell-based; conditions: Homo sapiens;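 note: cell viability assay measuring inhibition of proliferation of human MHH-PREB-1 cells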
# Description: SANGER: Inhibition of human MHH-PREB-1 cell growth in a cell viability assay.
# [2] = test system: LK-2; assay type: functional, cell-based, Homo sapiens;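 note: growth inhibition of LK-2 cells, read out with a viability assay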
# Description: SANGER: Inhibition of human LK-2 cell growth in a cell viability assay.
# [3] = test system: NCI-H510A; assay type: functional, cell-based; conditions: Homo sapiens;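 note: growth inhibition of NCI-H510A cells, read out with a cell viability assay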
# Description: SANGER: Inhibition of human NCI-H510A cell growth in a cell viability assay.
# [4] = test system: SW1710; assay type: functional, cell-based, Homo sapiens;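 note: growth inhibition of SW1710 cells, determined with a cell viability assay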
# Description: SANGER: Inhibition of human SW1710 cell growth in a cell viability assay.
# [5] = test system: NCI-H1838; assay type: functional, cell-based, Homo sapiens;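 note: growth inhibition of NCI-H1838 cells, determined with a cell viability readout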
# Description: SANGER: Inhibition of human NCI-H1838 cell growth in a cell viability assay.
# [6] = test system: LS-513; assay type: functional, cell-based, Homo sapiens
# Description: SANGER: Inhibition of human LS-513 cell growth in a cell viability assay.
# [7] = test system: EGI-1; assay type: functional, cell-based, Homo sapiens;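 note: cell viability readout used to gauge growth inhibition of EGI-1 cells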
# Description: SANGER: Inhibition of human EGI-1 cell growth in a cell viability assay.
# [8] = test system: MKN-1; assay type: functional, cell-based, Homo sapiens;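 note: growth inhibition of human MKN1 cells, read out by a cell viability measurement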
# Description: SANGER: Inhibition of human MKN1 cell growth in a cell viability assay.
# [9] = test system: NCI-H28; assay type: functional, cell-based, Homo sapiens;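 note: growth inhibition of human NCI-H28 cells, read out as cell viability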
# Description: SANGER: Inhibition of human NCI-H28 cell growth in a cell viability assay.
# [10] = test system: SW1463; assay type: functional, cell-based, Homo sapiens;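 note: growth inhibition of SW1463 cells, determined with a cell viability assay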
# Description: SANGER: Inhibition of human SW1463 cell growth in a cell viability assay.
# [11] = test system: RXF 393; assay type: functional, cell-based; conditions: Homo sapiens;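 note: growth inhibition of human RXF 393 cells, read out with a cell viability assay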
# Description: SANGER: Inhibition of human RXF393 cell growth in a cell viability assay.
# [12] = test system: CAMA-1; assay type: functional, cell-based, Homo sapiens;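 note: growth inhibition of CAMA-1 cells, read out with a cell viability assay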
# Description: SANGER: Inhibition of human CAMA-1 cell growth in a cell viability assay.
# [13] = test system: U-87 MG; assay type: functional, cell-based, U-87MG ATCC; conditions: Homo sapiens;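 note: growth inhibition of the cells measured with a viability assay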
# Description: SANGER: Inhibition of human U-87-MG cell growth in a cell viability assay.
# [14] = test system: BT-20; assay type: functional, cell-based, Homo sapiens;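 note: cell viability assay measuring suppression of growth in human BT-20 cells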
# Description: SANGER: Inhibition of human BT-20 cell growth in a cell viability assay.
# [15] = test system: SW48; assay type: functional, cell-based, Homo sapiens;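 note: growth inhibition of SW48 cells, read out with a cell viability assay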
# Description: SANGER: Inhibition of human SW48 cell growth in a cell viability assay.
# [16] = test system: HEC-1; assay type: functional, cell-based, Homo sapiens;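 note: growth inhibition of the cell line, read out with a cell viability assay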
# Description: SANGER: Inhibition of human HEC-1 cell growth in a cell viability assay.
# [17] = test system: KG-1; assay type: functional, cell-based; conditions: Homo sapiens;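 note: growth inhibition of KG-1 cells, read out by a cell viability assay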
# Description: SANGER: Inhibition of human KG-1 cell growth in a cell viability assay.
# [18] = test system: Lu-65; assay type: functional, cell-based; conditions: Homo sapiens;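 note: growth inhibition of Lu-65 cancer cells, read out by a cell viability assay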
# Description: SANGER: Inhibition of human LU-65 cell growth in a cell viability assay.
# [19] = test system: COLO-741; assay type: functional, cell-based, Homo sapiens
# Description: SANGER: Inhibition of human COLO-741 cell growth in a cell viability assay.
# [20] = test system: A101D; assay type: functional, cell-based, Homo sapiens;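 note: growth inhibition of the cell line, measured with a viability assay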
# Description: SANGER: Inhibition of human A101D cell growth in a cell viability assay.
# [21] = test system: CAL-27; assay type: functional, cell-based, Homo sapiens;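 note: Viability-based readout, IC50 reflecting inhibition of CAL-27 cell growth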
# Description: SANGER: Inhibition of human CAL-27 cell growth in a cell viability assay.
# [22] = test system: AGS; assay type: functional, cell-based, Homo sapiens;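 note: growth inhibition of AGS cells, determined with a cell viability assay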
# Description: SANGER: Inhibition of human AGS cell growth in a cell viability assay.
# [23] = test system: RKO; assay type: functional, cell-based, Homo sapiens;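 note: growth inhibition of human RKO cells, read out with a cell viability assay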
# Description: SANGER: Inhibition of human RKO cell growth in a cell viability assay.
# [24] = test system: SW13; assay type: functional, cell-based, Homo sapiens;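 note: IC50 is inhibition of SW13 cell growth, read out with a cell viability assay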
# Description: SANGER: Inhibition of human SW13 cell growth in a cell viability assay.
# [25] = test system: Huh-7; assay type: functional, cell-based, Homo sapiens;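 note: HuH-7 cell growth inhibition, read out with a cell viability assay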
# Description: SANGER: Inhibition of human HuH-7 cell growth in a cell viability assay.
# [26] = test system: SHP77; assay type: functional, cell-based, Homo sapiens, SHP-77;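 note: growth inhibition of human SHP-77 cells measured by a cell viability assay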
# Description: SANGER: Inhibition of human SHP-77 cell growth in a cell viability assay.
# [27] = test system: M14; assay type: functional, cell-based, Homo sapiens;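 note: growth inhibition of M14 cells, read out with a cell viability assay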
# Description: SANGER: Inhibition of human M14 cell growth in a cell viability assay.
# [28] = test system: SCC-4; assay type: functional, cell-based, Homo sapiens;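 note: growth inhibition of human SCC-4 cells, read out as cell viability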
# Description: SANGER: Inhibition of human SCC-4 cell growth in a cell viability assay.
# [29] = test system: CaR-1; assay type: functional, cell-based, Homo sapiens;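 note: growth inhibition of human CaR-1 cancer cells, read out with a cell viability assay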
# Description: SANGER: Inhibition of human CaR-1 cell growth in a cell viability assay.
# [30] = test system: NTERA-2-cl-D1; assay type: functional, cell-based, Homo sapiens;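 note: inhibition of cell growth, measured with a cell viability assay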
# Description: SANGER: Inhibition of human NTERA-S-cl-D1 cell growth in a cell viability assay.
# [31] = test system: RVH-421; assay type: functional, cell-based, Homo sapiens
# Description: SANGER: Inhibition of human RVH-421 cell growth in a cell viability assay.
# [32] = test system: U-266; assay type: functional, cell-based; conditions: Homo sapiens
# Description: SANGER: Inhibition of human U-266 cell growth in a cell viability assay.
# [33] = test system: NCI-H1693; assay type: functional, cell-based, Homo sapiens;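 note: growth inhibition of the human cell line, read out with a cell viability assay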
# Description: SANGER: Inhibition of human NCI-H1693 cell growth in a cell viability assay.
# [34] = test system: NCI-N87; assay type: functional, cell-based, Homo sapiens;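 note: growth inhibition of human NCI-N87 cells, read out with a cell viability assay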
# Description: SANGER: Inhibition of human NCI-N87 cell growth in a cell viability assay.
# [35] = test system: no-11; assay type: functional, cell-based, Homo sapiens;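 note: growth inhibition of human NO-11 cells, read out with a cell viability assay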
# Description: SANGER: Inhibition of human no-11 cell growth in a cell viability assay.
# [36] = test system: EFM-19; assay type: functional, cell-based, Homo sapiens;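 note: growth inhibition of human EFM-19 cells, measured in a cell viability assay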
# Description: SANGER: Inhibition of human EFM-19 cell growth in a cell viability assay.
# [37] = test system: HDLM-2; assay type: functional, cell-based; conditions: Homo sapiens;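 note: cell viability assay measuring suppression of HDLM-2 proliferation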
# Description: SANGER: Inhibition of human HDLM-2 cell growth in a cell viability assay.
# [38] = test system: NCI-H747; assay type: functional, cell-based; conditions: Homo sapiens;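 note: growth inhibition of human NCI-H747 cells, read out by a cell viability assay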
# Description: SANGER: Inhibition of human NCI-H747 cell growth in a cell viability assay.
# [39] = test system: MC116; assay type: functional, cell-based; conditions: Homo sapiens;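 note: growth inhibition of MC116 cells, read out with a cell viability assay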
# Description: SANGER: Inhibition of human MC116 cell growth in a cell viability assay.
# [40] = test system: CGTH-W-1; assay type: functional, cell-based, Homo sapiens;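 note: growth inhibition of human CGTH-W-1 cells measured by cell viability assay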
# Description: SANGER: Inhibition of human CGTH-W-1 cell growth in a cell viability assay.
# [41] = test system: NCI-H650; assay type: functional, cell-based, Homo sapiens;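 note: growth inhibition of NCI-H650 cells, read out by a viability assay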
# Description: SANGER: Inhibition of human NCI-H650 cell growth in a cell viability assay.
# [42] = test system: CTB-1; assay type: functional, cell-based; conditions: Homo sapiens
# Description: SANGER: Inhibition of human CTB-1 cell growth in a cell viability assay.
# [43] = test system: SCC-9; assay type: functional, cell-based, Homo sapiens;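 note: Read-out is a cell viability assay, with values giving inhibition of cell growth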
# Description: SANGER: Inhibition of human SCC-9 cell growth in a cell viability assay.
# [44] = test system: NKM-1; assay type: functional, cell-based; conditions: Homo sapiens;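 note: growth inhibition of NKM-1 cells, read out with a cell viability assay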
# Description: SANGER: Inhibition of human NKM-1 cell growth in a cell viability assay.
# [45] = test system: RCC10RGB; assay type: functional, cell-based, Homo sapiens;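 note: growth inhibition of human RCC10RGB cells, read out by a cell viability assay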
# Description: SANGER: Inhibition of human RCC10RGB cell growth in a cell viability assay.
# [46] = test system: HCE-T; assay type: functional, cell-based, Homo sapiens;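 note: cell viability assay read-out, reporting inhibition of HCE-T cell growth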
# Description: SANGER: Inhibition of human HCE-T cell growth in a cell viability assay.
# [47] = test system: SAOS-2; assay type: functional, cell-based, Homo sapiens;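 note: growth inhibition of human Saos-2 cells determined by a cell viability assay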
# Description: SANGER: Inhibition of human Saos-2 cell growth in a cell viability assay.
# [48] = test system: NCI-H2342; assay type: functional, cell-based; conditions: Homo sapiens;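 note: growth inhibition of the cancer cell line, determined with a cell viability assay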
# Description: SANGER: Inhibition of human NCI-H2342 cell growth in a cell viability assay.
# [49] = test system: no-10; assay type: functional, cell-based, Homo sapiens;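 note: growth inhibition of no-10 cells, read out with a cell viability assay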
# Description: SANGER: Inhibition of human no-10 cell growth in a cell viability assay.
# [50] = test system: 8305C; assay type: functional, cell-based, Homo sapiens
# Description: SANGER: Inhibition of human 8305C cell growth in a cell viability assay.
# [51] = test system: ES5; assay type: functional, cell-based, Homo sapiens;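 note: growth inhibition of human ES5 cells, read out by a cell viability assay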
# Description: SANGER: Inhibition of human ES5 cell growth in a cell viability assay.
# [52] = test system: NCI-H520; assay type: functional, cell-based, Homo sapiens;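 note: growth inhibition of NCI-H520 cells, measured by a cell viability assay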
# Description: SANGER: Inhibition of human NCI-H520 cell growth in a cell viability assay.
smiles,measurement,setting,value
CN(c1ncccc1CNc1nc(Nc2ccc3c(c2)CC(=O)N3)ncc1C(F)(F)F)S(C)(=O)=O [PF-00562271],pIC50,[1],< 5.59
same,pIC50,"[2]; Homo sapiens, LK-2",< 5.59
same,pIC50,[3],< 5.59
same,pIC50,"[4]; Homo sapiens, SW1710",5.79
same,pIC50,"[5]; Homo sapiens, NCI-H1838",< 5.59
same,pIC50,"[6]; Homo sapiens, LS-513",< 5.59
same,pIC50,"[7]; Homo sapiens, EGI-1",< 5.59
same,pIC50,"[8]; Homo sapiens, MKN-1",< 5.59
same,pIC50,"[9]; Homo sapiens, NCI-H28",< 5.59
same,pIC50,"[10]; Homo sapiens, SW1463",< 5.59
same,pIC50,[11],< 5.59
same,pIC50,"[12]; Homo sapiens, CAMA-1",< 5.59
same,pIC50,[13],< 5.59
same,pIC50,"[14]; Homo sapiens, BT-20",< 5.59
same,pIC50,"[15]; Homo sapiens, SW48",< 5.59
same,pIC50,"[16]; Homo sapiens, HEC-1",< 5.59
same,pIC50,[17],< 5.59
same,pIC50,[18],< 5.59
same,pIC50,"[19]; Homo sapiens, COLO-741",< 5.59
same,pIC50,"[20]; Homo sapiens, A101D",< 5.59
same,pIC50,"[21]; Homo sapiens, CAL-27",< 5.59
same,pIC50,"[22]; Homo sapiens, AGS",5.82
same,pIC50,"[23]; Homo sapiens, RKO",< 5.59
same,pIC50,"[24]; Homo sapiens, SW13",< 5.59
same,pIC50,"[25]; Homo sapiens, Huh-7",< 5.59
same,pIC50,"[26]; Homo sapiens, SHP77",< 5.59
same,pIC50,"[27]; Homo sapiens, M14",< 5.59
same,pIC50,"[28]; Homo sapiens, SCC-4",< 5.59
same,pIC50,"[29]; Homo sapiens, CaR-1",< 5.59
same,pIC50,"[30]; Homo sapiens, NTERA-2-cl-D1",< 5.59
same,pIC50,"[31]; Homo sapiens, RVH-421",< 5.59
same,pIC50,[32],< 5.59
same,pIC50,"[33]; Homo sapiens, NCI-H1693",< 5.59
same,pIC50,"[34]; Homo sapiens, NCI-N87",< 5.59
same,pIC50,[35]; Homo sapiens,< 5.59
same,pIC50,"[36]; Homo sapiens, EFM-19",< 5.59
same,pIC50,[37],< 5.59
same,pIC50,[38],< 5.59
same,pIC50,[39],< 5.59
same,pIC50,"[40]; Homo sapiens, CGTH-W-1",5.79
same,pIC50,"[41]; Homo sapiens, NCI-H650",6.08
same,pIC50,[42],< 5.59
same,pIC50,"[43]; Homo sapiens, SCC-9",< 5.59
same,pIC50,[44],5.89
same,pIC50,"[45]; Homo sapiens, RCC10RGB",5.63
same,pIC50,"[46]; Homo sapiens, HCE-T",< 5.59
same,pIC50,"[47]; Homo sapiens, SAOS-2",< 5.59
same,pIC50,[48],< 5.59
same,pIC50,[49]; Homo sapiens,< 5.59
same,pIC50,"[50]; Homo sapiens, 8305C",5.96
same,pIC50,"[51]; Homo sapiens, ES5",< 5.59
same,pIC50,"[52]; Homo sapiens, NCI-H520",< 5.59
Cc1cc([C@@H](C)Nc2ccccc2C(=O)O)c2nc(N3CCOCC3)cc(=O)n2c1 [AZD-6482],pIC50,[1],< 5.29
same,pIC50,[2]; lk-2,< 5.29
same,pIC50,[3],< 5.29
same,pIC50,[4]; sw1710,6.28 and 5.70
same,pIC50,[5]; nci-h1838,< 5.29
same,pIC50,"[6]; Homo sapiens, LS-513",< 5.29
same,pIC50,[6]; ls-513,< 5.29
same,pIC50,[7]; egi-1,< 5.29
same,pIC50,[8]; mkn-1,< 5.29
same,pIC50,[9]; nci-h28,< 5.29
same,pIC50,[10]; sw1463,< 5.29
same,pIC50,[12]; cama-1,5.92 and < 5.29
same,pIC50,[13],< 5.29
same,pIC50,[14]; bt-20,6.23 and 5.75
same,pIC50,"[15]; Homo sapiens, SW48",< 5.29
same,pIC50,[15]; sw48,< 5.29
same,pIC50,"[16]; Homo sapiens, HEC-1",< 5.29
same,pIC50,[16]; hec-1,< 5.29
same,pIC50,[17],< 5.29
same,pIC50,[18],< 5.29
same,pIC50,[19]; colo-741,< 5.29
same,pIC50,[20]; a101d,5.49 and < 5.29
same,pIC50,"[21]; Homo sapiens, CAL-27",< 5.29
same,pIC50,[21]; cal-27,< 5.29
same,pIC50,"[22]; Homo sapiens, AGS",< 5.29
same,pIC50,[22]; ags,< 5.29
same,pIC50,"[23]; Homo sapiens, RKO",5.51
same,pIC50,[23]; rko,5.50
same,pIC50,"[24]; Homo sapiens, SW13",< 5.29
same,pIC50,[24]; sw13,< 5.29
same,pIC50,"[25]; Homo sapiens, Huh-7",< 5.29
same,pIC50,[25]; huh-7,< 5.29
same,pIC50,[26]; shp-77,< 5.29
same,pIC50,[27]; m14,< 5.29
same,pIC50,[28]; scc-4,< 5.29
same,pIC50,[29]; car-1,< 5.29
same,pIC50,"[30]; Homo sapiens, NTERA-2-cl-D1",5.66
same,pIC50,[30]; ntera-2-cl-d1,5.36
same,pIC50,[31]; rvh-421,< 5.29
same,pIC50,[32],< 5.29
same,pIC50,[33]; nci-h1693,< 5.29
same,pIC50,[34]; nci-n87,< 5.29
same,pIC50,[35],< 5.29
same,pIC50,[36]; efm-19,< 5.29
same,pIC50,[37],< 5.29
same,pIC50,[38],< 5.29
same,pIC50,[39],5.84
same,pIC50,[40]; cgth-w-1,< 5.29
same,pIC50,[41]; nci-h650,5.89 and < 5.29
same,pIC50,[42],< 5.29
same,pIC50,"[43]; Homo sapiens, SCC-9",6.07
same,pIC50,[43]; scc-9,6.04
same,pIC50,[44],5.89
same,pIC50,[45]; rcc10rgb,< 5.29
same,pIC50,[46]; hce-t,< 5.29 and 5.68
same,pIC50,"[47]; Homo sapiens, SAOS-2",< 5.29
same,pIC50,[47]; saos-2,< 5.29
same,pIC50,[48],6.07
same,pIC50,[49],< 5.29
same,pIC50,[49]; Homo sapiens,< 5.29
same,pIC50,[50]; 8305c,< 5.29
same,pIC50,[51]; es5,< 5.29
same,pIC50,"[52]; Homo sapiens, NCI-H520",5.38
same,pIC50,[52]; nci-h520,< 5.29

# Reference: ChEMBL document CHEMBL1201861, “Genomics of Drug Sensitity in Cancer screening data, Wellcome Trust Sanger Institute”
